# Test results reported in US20190100549A1, “FLAVONOIDE-TYPE COMPOUNDS BEARING AN O-RHAMNOSYL RESIDUE” (Universitaet Hamburg, priority 2016, published 2019).
# Values joined by “and” are separate entries in the source; they are usually repeats but may differ in a detail not shown here. Identical values can stand only once.
# Tests used:
# TNF-α = TNF-α release in stimulated NHEK (ELISA); format: cell-based, human; details: poly(I:C)
# Protocol: (§1) NHEK were pre-incubated for 24 h with the test compounds. The medium was replaced with the NHEK culture medium containing the inflammatory inducers (PMA or Poly I:C) and incubated for another 24 hours. Positive and negative controls ran in parallel. At the endpoint the culture supernatants were quantified of secreted IL-8, PGE2 and TNF-α by means of ELISA.
# IL-8 = IL-8 release in stimulated NHEK (ELISA); format: cell-based, human; details: for inhibition at 100 µM: Homo sapiens, NHEK; for Cytokine [pg/mL] IL-8 Mean / IL-8 % stim. control / Cytokine [pg/mL] IL-8: 100 μM; for Cytokine [pg/mL] IL-8: single values
# Protocol: as §1
# VEGF = VEGF release in NHDF (ELISA); format: cell-based, human; details: 100 μM, 72 hours
# Protocol: (§2) Tests were performed with normal human dermal fibroblast cultures at the 8th passage. Cells were grown in DMEM supplemented with glutamine at 2 mM, penicillin at 50 U/mL and streptomycin (50 μg/mL) and 10% of fetal calf serum (FCS) at 37° C. in a 5% CO2 atmosphere.
# (§3) Fibroblasts were cultured for 24 hours before the cells were incubated with the test compounds for further 72 hours. After the incubation the culture supernatants were collected in order to measure the released quantities of procollagen I, VEGF, and fibronectin by means of ELISA. Reference test compounds were vitamin C (procollagen I), PMA (VEGF), and TGF-β (fibronectin).
# [1] = system: hydrogen peroxide (DHR) in NHEK cells; experiment: Protection against UV-induced H2O2 stress in NHEK (DHR probe, flow cytometry); format: cell-based, human
# Protocol: Pre-incubated NHEK were incubated with the test compound for 24 h. Then the specific fluorescence probe for the measurement of hydrogen peroxide (DHR) or lipid peroxides (C11-fluor) was added and incubated for 45 min. Irradiation occurred with in H2O2 determination UVB at 180 mJ/cm^2 (+UVA at 2839 mJ/cm^2) or UVB at 240 mJ/cm^2 (+UVA at 3538 mJ/cm^2) in lipid peroxide, respectively, using a SOL500 Sun Simulator lamp. After irradiation the cells were post-incubated for 30 min before flow-cytometry analysis.
# PGE2 = PGE2 release in stimulated NHEK (ELISA); format: cell-based, human; details: PMA 1 μg/ml, 100 μM
# Protocol: as §1
# STAT3 = STAT3 activity in HeLa-STAT3-luc cells stimulated with IFN-γ (luciferase); format: cell-based; details: +IFNγ 25 U/ml; for RLU 1 / RLU 2 / RLU 3: HeLa-STAT3-luc cells; for RLU 1: replicate well 1; for RLU 2: replicate well 2; for RLU 3: replicate well 3; for RLU specific: mean minus control; for Mean: mean of triplicate wells; for % Activation: IFNγ alone = 100% activation
# Protocol: HeLa-STAT3-luc cells were stably transfected with the plasmid 4xM67 pTATA TK-Luc. Cells (20×10^3 cells/ml) were seeded 96-well plate the day before the assay. Then the cells were treated with the test substances for 15 min and then stimulated with IFN-γ 25 IU/ml. After 6 h, the cells were washed twice with PBS and lysed in 50 μl lysis buffer containing 25 mM Tris-phosphate (pH 7.8), 8 mM MgCl2, 1 mM DTT, 1% Triton X-100, and 7% glycerol during 15 min at RT in a horizontal shaker. Luciferase activity was measured using GloMax 96 microplate luminometer (Promega) following the instructions of the luciferase assay kit (Promega, Madison, Wis., USA). […] The experiments for each concentration of the test items were done in triplicate wells.
# [2] = system: normal human epidermal keratinocytes (NHEK); experiment: Cytotoxicity on NHEK monolayer cultures (MTT reduction assay and morphological observation); format: cell-based; details: for Viability (%): single values, listed as Hes-5-Rha
# Protocol: To determine the cytotoxicity of flavonoid-5-O-α-L-rhamnosides tests were performed versus their aglycon derivatives in cell monolayer cultures. For this purpose concentrations ranging from 1 μM to 250 μM were chosen. The viability of normal human epidermal keratinocytes (NHEK) was twice evaluated by a MTT reduction assay and morphological observation with a microscope. NHEK were grown at 37° C. and 5% CO2 aeration in Keratinocyte-SFM medium supplemented with epidermal growth factor (EGF) at 0.25 ng/mL, pituitary extract (PE) at 25 μg/mL and gentamycin (25 μg/mL) for 24 h and were used at the 3rd passage. For cytotoxicity testing, pre-incubated NHEK were given fresh culture medium containing a specific concentration of test compound and incubated for 24 h. After a medium change at same test concentration cells were incubated a further 24 h until viability was determined. Test results are given in Table B2 and illustrated in FIG. 10.
# [3] = system: matrix metallopeptidase 1 (MMP-1); experiment: MMP-1 release in UVA-irradiated NHDF (ELISA); format: cell-based, human; details: 100 μM, 15 J/cm^2 UVA
# Protocol: as §2
# Human fibroblasts were cultured for 24 hours before the cells were pre-incubated with the test or reference compounds (dexamethasone) for another 24 hours. The medium was replaced by the irradiation medium (EBSS, CaCl2 0.264 g/L, MgClSO4 0.2 g/L) containing the test compounds) and cells were irradiated with UVA (15 J/cm^2). The irradiation medium was replaced by culture medium including again the test compounds incubated for 48 hours. After incubation the quantity of matrix metallopeptidase 1 (MMP-1) in the culture supernatant was measured using an ELISA kit.
# procollagen I = experiment: Procollagen I synthesis in NHDF (ELISA); format: cell-based, human; details: 100 μM, 72 hours
# Protocol: as §2, §3
# [4] = 100 μM, 180 mJ/cm^2 UVB (2839 mJ/cm^2 UVA)
compound,measurement,setting,value
"COc1ccc(C2CC(=O)c3c(cc(O)cc3O[C@@H]3O[C@@H](C)[C@H](O)[C@@H](O)[C@H]3O)O2)cc1O (stereo partly drawn) [HESR1, Hesperetin-5-O-α-L-rhamnoside]",inhibition at 100 µM,"TNF-α; Homo sapiens, NHEK, read-out: TNFα Inhibition %",26%
same,Cytokine [pg/mL] TNFα Mean,TNF-α; 100 μM,423 pg/mL
same,TNFα % stim. control,TNF-α; 100 μM,75%
same,Cytokine [pg/mL] TNFα,"TNF-α; 100 μM, single values",416 pg/mL and 429 pg/mL
same,inhibition at 100 µM,IL-8; PMA,34%
same,inhibition at 100 µM,IL-8; poly(I:C),24%
same,Cytokine [pg/mL] IL-8 Mean,IL-8; PMA,2843 pg/mL
same,IL-8 % stim. control,IL-8; PMA,98%
same,Cytokine [pg/mL] IL-8,IL-8; PMA,3242 pg/mL and 2445 pg/mL
same,Cytokine [pg/mL] IL-8 Mean,IL-8; poly(I:C),2793 pg/mL
same,IL-8 % stim. control,IL-8; poly(I:C),76%
same,Cytokine [pg/mL] IL-8,IL-8; poly(I:C),2617 pg/mL and 2970 pg/mL
same,Mean VEGF,VEGF,73 pg/mL
same,VEGF % Control,VEGF,101%
same,VEGF % Stimulation,VEGF,1%
same,VEGF,VEGF; single values,70 pg/mL and 76 pg/mL
same,anti-oxidative function on mitochondrially produced hydrogen peroxids species (in words),[1],anti-oxidative function
same,H2O2 % irradiated control,[1]; [4],62%
same,H2O2 (AU) Mean,[1]; [4],1152 AU
same,H2O2 Protection %,[1]; [4],45%
same,H2O2 (AU) (DHR GMFI),"[1]; 100 μM, 180 mJ/cm^2 UVB (2839 mJ/cm^2 UVA), single values",1046 AU and 1258 AU
same,inhibition at 100 µM,"PGE2; Homo sapiens, NHEK",74%
same,Cytokine [pg/mL] PGE2 Mean,PGE2,507 pg/mL
same,PGE2 % stim. control,PGE2,32%
same,Cytokine [pg/mL] PGE2,PGE2; single values,582 pg/mL and 431 pg/mL
same,RLU 1,STAT3; 25 μM test substance,13396 RLU
same,RLU 2,STAT3; 25 μM test substance,12243 RLU
same,RLU 3,STAT3; 25 μM test substance,12859 RLU
same,RLU specific,STAT3; 25 μM test substance,10825 RLU
same,Mean,STAT3; 25 μM test substance,12833 RLU
same,% Activation,STAT3; 25 μM test substance,86.48%
same,RLU 1,STAT3; 50 μM test substance,14303 RLU
same,RLU 2,STAT3; 50 μM test substance,13124 RLU
same,RLU 3,STAT3; 50 μM test substance,11985 RLU
same,RLU specific,STAT3; 50 μM test substance,11130 RLU
same,Mean,STAT3; 50 μM test substance,13137 RLU
same,% Activation,STAT3; 50 μM test substance,88.92%
same,Viability (%) Mean,[2]; 1 μM,97%
same,Viability (%),[2]; 1 μM,86% and 108%
same,Viability (%) Mean,[2]; 2.5 μM,100%
same,Viability (%),[2]; 2.5 μM,87% and 113%
same,Viability (%) Mean,[2]; 5 μM,88%
same,Viability (%),[2]; 5 μM,81% and 95%
same,Viability (%) Mean,[2]; 10 μM,95%
same,Viability (%),[2]; 10 μM,86% and 103%
same,Viability (%) Mean,[2]; 25 μM,101%
same,Viability (%),[2]; 25 μM,89% and 112%
same,Viability (%) Mean,[2]; 50 μM,87%
same,Viability (%),[2]; 50 μM,81% and 93%
same,Viability (%) Mean,[2]; 100 μM,97%
same,Viability (%),[2]; 100 μM,86% and 108%
same,Viability (%) Mean,[2]; 250 μM,96%
same,Viability (%),[2]; 250 μM,91% and 102%
same,MMP-1 % Irradiated control,[3],116%
same,MMP-1 % Protection,[3],−25%
same,Mean MMP-1,[3],82.2 ng/mL
same,MMP-1,[3]; single values,87.0 ng/mL and 77.4 ng/mL
same,Procollagen I % Control,procollagen I,118%
same,Procollagen I Mean,procollagen I,1968 ng/mL
same,Procollagen I,procollagen I; single values,1929 ng/mL and 2007 ng/mL
